# Reference: PubChem BioAssay AID248 (DTP/NCI, 2004)
# Inconclusive results and toxic doses are left out.
# System: L1210 leukemia ip in BDF1 mice, survival T/C
# Assay: NCI In Vivo Anticancer Drug Screen. Data for tumor model L1210 Leukemia (intraperitoneal) in B6D2F1 (BDF1) mice
# Settings: endpoint: mean survival time, higher = longer survival
# Method in brief: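 Ratio derived from survival: compound-dosed mice over vehicle-dosed mice, all bearing a transplantable tumor.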
# [1] = dose: 100.0 mg/kg/injection, schedule: Q01DX009 (ip), vehicle: saline
# [2] = dose: 50.0 mg/kg/injection, schedule: Q01DX001 (ip), vehicle: saline
# [3] = dose: 100.0 mg/kg/injection, schedule: Q01DX001 (ip), vehicle: saline
# [4] = dose: 200.0 mg/kg/injection, schedule: Q01DX001 (ip), vehicle: saline
# [5] = dose: 400.0 mg/kg/injection, schedule: Q01DX001 (ip), vehicle: saline
# [6] = dose: 100.0 mg/kg/injection, schedule: Q01DX009 (ip), vehicle: Klucel (hydroxypropylcellulose) (HPC)
# [7] = dose: 200.0 mg/kg/injection, schedule: Q01DX009 (ip), vehicle: Klucel (hydroxypropylcellulose) (HPC)
# [8] = dose: 400.0 mg/kg/injection, schedule: Q01DX009 (ip), vehicle: Klucel (hydroxypropylcellulose) (HPC)
# [9] = dose: 200.0 mg/kg/injection, schedule: Q01DX009 (ip), vehicle: saline
# [10] = dose: 200.0 mg/kg/injection, schedule: Q04DX003 (ip), vehicle: Klucel (hydroxypropylcellulose) (HPC)
# [11] = dose: 400.0 mg/kg/injection, schedule: Q04DX003 (ip), vehicle: Klucel (hydroxypropylcellulose) (HPC)
smiles,measurement,setting,value
C=C1C(=O)OC2CCCCCCC12 (stereo not drawn),T/C,"dose: 50.0 mg/kg/injection, schedule: Q01DX009 (ip), vehicle: saline",95 % of control
same,T/C,[1],95 % of control
CCOC(=O)N1C(c2ccccc2)N(c2ccccc2)C(c2ccccc2)N1C(=O)OCC (stereo not drawn),T/C,[2],108 % of control
same,T/C,[3],103 % of control
same,T/C,[4],108 % of control
same,T/C,[5],103 % of control
N#Cc1ccc(-c2ccc(N)cc2)cc1,T/C,"dose: 50.0 mg/kg/injection, schedule: Q01DX001 (ip), vehicle: carboxymethylcellulose (CMC)",88 % of control
same,T/C,"dose: 100.0 mg/kg/injection, schedule: Q01DX001 (ip), vehicle: carboxymethylcellulose (CMC)",90 % of control
same,T/C,"dose: 200.0 mg/kg/injection, schedule: Q01DX001 (ip), vehicle: carboxymethylcellulose (CMC)",88 % of control
same,T/C,"dose: 400.0 mg/kg/injection, schedule: Q01DX001 (ip), vehicle: carboxymethylcellulose (CMC)",90 % of control
CCN(CCCl)CC1C(c2ccccc2)C1c1ccccc1 (stereo not drawn),T/C,"dose: 25.0 mg/kg/injection, schedule: Q04DX002 (ip), vehicle: Klucel (hydroxypropylcellulose) (HPC)",94 % of control
same,T/C,"dose: 50.0 mg/kg/injection, schedule: Q04DX002 (ip), vehicle: Klucel (hydroxypropylcellulose) (HPC)",87 % of control
CCCCCCCCCC(=O)OCC1OC(=O)C(C)N(C)C(=O)CN(C)C(=O)C2C(=O)CC(C)N2C(=O)C(C(C)C)NC(=O)C1NC(=O)c1c2nc3c(C(=O)NC4C(=O)NC(C(C)C)C(=O)N5C(C)CC(OC(=O)CCCCCCCCC)C5C(=O)N(C)CC(=O)N(C)C(C(C)C)C(=O)OC4C)ccc(C)c3oc-2c(C)c(=O)c1N (stereo not drawn),T/C,"dose: 0.2 mg/kg/injection, schedule: Q01DX009 (ip), vehicle: Klucel (hydroxypropylcellulose) (HPC)",92 % of control
same,T/C,"dose: 0.4 mg/kg/injection, schedule: Q01DX009 (ip), vehicle: Klucel (hydroxypropylcellulose) (HPC)",94 % of control
same,T/C,"dose: 0.6 mg/kg/injection, schedule: Q04DX003 (ip), vehicle: Klucel (hydroxypropylcellulose) (HPC)",97 % of control
same,T/C,"dose: 0.8 mg/kg/injection, schedule: Q01DX009 (ip), vehicle: Klucel (hydroxypropylcellulose) (HPC)",96 % of control
same,T/C,"dose: 1.2 mg/kg/injection, schedule: Q04DX003 (ip), vehicle: Klucel (hydroxypropylcellulose) (HPC)",95 % of control
same,T/C,"dose: 1.6 mg/kg/injection, schedule: Q01DX001 (ip), vehicle: Klucel (hydroxypropylcellulose) (HPC)",92 % of control
same,T/C,"dose: 1.6 mg/kg/injection, schedule: Q01DX009 (ip), vehicle: Klucel (hydroxypropylcellulose) (HPC)",92 % of control
same,T/C,"dose: 2.4 mg/kg/injection, schedule: Q04DX003 (ip), vehicle: Klucel (hydroxypropylcellulose) (HPC)",90 % of control
same,T/C,"dose: 3.2 mg/kg/injection, schedule: Q01DX001 (ip), vehicle: Klucel (hydroxypropylcellulose) (HPC)",92 % of control
same,T/C,"dose: 3.2 mg/kg/injection, schedule: Q01DX009 (ip), vehicle: Klucel (hydroxypropylcellulose) (HPC)",89 % of control
same,T/C,"dose: 4.8 mg/kg/injection, schedule: Q04DX003 (ip), vehicle: Klucel (hydroxypropylcellulose) (HPC)",91 % of control
same,T/C,"dose: 6.4 mg/kg/injection, schedule: Q01DX001 (ip), vehicle: Klucel (hydroxypropylcellulose) (HPC)",91 % of control
same,T/C,"dose: 9.6 mg/kg/injection, schedule: Q04DX003 (ip), vehicle: Klucel (hydroxypropylcellulose) (HPC)",87 % of control
same,T/C,"dose: 12.8 mg/kg/injection, schedule: Q01DX001 (ip), vehicle: Klucel (hydroxypropylcellulose) (HPC)",89 % of control
CCOC(=O)c1ccc(NC(=O)Oc2ccc3c(C)cc(=O)oc3c2)cc1,T/C,[6],101 % of control
same,T/C,[7],100 % of control
same,T/C,[8],89 % of control
COCCOC(N)=O,T/C,[3],105 % of control
same,T/C,[4],115 % of control
same,T/C,[5],95 % of control
CC1(C)C(=O)Nc2ccccc2N1C(=O)CN1CC2CCC(CC2)C1,T/C,[1],94 % of control
same,T/C,"dose: 100.0 mg/kg/injection, schedule: Q04DX003 (ip), vehicle: saline",93 % of control
same,T/C,[9],92 % of control
same,T/C,"dose: 200.0 mg/kg/injection, schedule: Q04DX003 (ip), vehicle: saline",95 % of control
same,T/C,"dose: 400.0 mg/kg/injection, schedule: Q04DX003 (ip), vehicle: saline",98 % of control
COc1ccc(-n2c(=O)c(N=Nc3ccccc3C)c(O)n(-c3ccccc3Cl)c2=S)cc1,T/C,"dose: 100.0 mg/kg/injection, schedule: Q01DX001 (ip), vehicle: Klucel (hydroxypropylcellulose) (HPC)",107 % of control
same,T/C,"dose: 200.0 mg/kg/injection, schedule: Q01DX001 (ip), vehicle: Klucel (hydroxypropylcellulose) (HPC)",94 % of control
same,T/C,"dose: 400.0 mg/kg/injection, schedule: Q01DX001 (ip), vehicle: Klucel (hydroxypropylcellulose) (HPC)",102 % of control
CC(C)Cc1ccccc1,T/C,[6],106 % of control
same,T/C,"dose: 100.0 mg/kg/injection, schedule: Q04DX003 (ip), vehicle: Klucel (hydroxypropylcellulose) (HPC)",110 % of control
same,T/C,[7],100 % of control
same,T/C,[10],96 % of control
same,T/C,[8],122 % of control
same,T/C,[11],96 % of control
CSc1nc(Cl)cc(N2CC2)n1,T/C,"dose: 0.39 mg/kg/injection, schedule: Q01DX009 (ip), vehicle: saline",106 % of control
same,T/C,"dose: 0.78 mg/kg/injection, schedule: Q01DX009 (ip), vehicle: saline",97 % of control
same,T/C,"dose: 0.78 mg/kg/injection, schedule: Q04DX003 (ip), vehicle: saline",107 % of control
same,T/C,"dose: 1.56 mg/kg/injection, schedule: Q01DX001 (ip), vehicle: saline",101 % of control
same,T/C,"dose: 1.56 mg/kg/injection, schedule: Q04DX003 (ip), vehicle: saline",101 % of control
same,T/C,"dose: 3.12 mg/kg/injection, schedule: Q01DX001 (ip), vehicle: saline",101 % of control
same,T/C,"dose: 59.0 mg/kg/injection, schedule: Q01DX Z (ip), vehicle: methylcellulose (MC)",94 % of control
same,T/C,"dose: 88.0 mg/kg/injection, schedule: Q01DX Z (ip), vehicle: methylcellulose (MC)",93 % of control
CC1(C)OC2COC(c3[nH]nc4c(=O)[nH]c(=O)[nH]c34)C2O1 (stereo not drawn),T/C,"dose: 25.0 mg/kg/injection, schedule: Q01DX009 (ip), vehicle: saline",96 % of control
same,T/C,"dose: 100.0 mg/kg/injection, schedule: Q01DX005 (ip), vehicle: saline",101 % of control
same,T/C,[1],188 % of control
O=C(CCl)c1cccnc1C(=O)O,T/C,"dose: 25.0 mg/kg/injection, schedule: Q01DX009 (ip), vehicle: saline sonified",94 % of control
same,T/C,"dose: 50.0 mg/kg/injection, schedule: Q01DX009 (ip), vehicle: saline sonified",91 % of control
same,T/C,"dose: 100.0 mg/kg/injection, schedule: Q01DX009 (ip), vehicle: saline sonified",89 % of control
Cc1c2ccncc2cc2c3ccccc3n(CCO)c12,T/C,"dose: 9.38 mg/kg/injection, schedule: Q01DX009 (ip), vehicle: Klucel (hydroxypropylcellulose) (HPC)",105 % of control
same,T/C,"dose: 18.75 mg/kg/injection, schedule: Q01DX009 (ip), vehicle: Klucel (hydroxypropylcellulose) (HPC)",107 % of control
same,T/C,"dose: 18.75 mg/kg/injection, schedule: Q04DX003 (ip), vehicle: Klucel (hydroxypropylcellulose) (HPC)",97 % of control
same,T/C,"dose: 37.5 mg/kg/injection, schedule: Q01DX009 (ip), vehicle: Klucel (hydroxypropylcellulose) (HPC)",107 % of control
same,T/C,"dose: 37.5 mg/kg/injection, schedule: Q04DX003 (ip), vehicle: Klucel (hydroxypropylcellulose) (HPC)",107 % of control
same,T/C,"dose: 75.0 mg/kg/injection, schedule: Q04DX003 (ip), vehicle: Klucel (hydroxypropylcellulose) (HPC)",105 % of control
same,T/C,[10],98 % of control
same,T/C,[11],104 % of control
O=C1OC(Cl)(C(Cl)(Cl)Cl)C(=O)OC1(Cl)C(Cl)(Cl)Cl (stereo not drawn),T/C,"dose: 100.0 mg/kg/injection, schedule: Q04DX003 (ip), vehicle: acetone",98 % of control
same,T/C,"dose: 200.0 mg/kg/injection, schedule: Q04DX003 (ip), vehicle: acetone",98 % of control
same,T/C,"dose: 400.0 mg/kg/injection, schedule: Q04DX003 (ip), vehicle: acetone",96 % of control
O=P1(N(CCCl)CCCl)NC(OO)CCO1 (stereo not drawn),T/C,"dose: 200.0 mg/kg/injection, schedule: Q01DX001 (ip), vehicle: DMSO",270 % of control
O=[N+]([O-])/C(=C/c1ccccc1)c1ccccc1,T/C,[2],102 % of control
same,T/C,[3],108 % of control
same,T/C,[4],104 % of control
CC(=O)c1c[nH]c2ccccc12,T/C,[1],101 % of control
same,T/C,[9],108 % of control
same,T/C,"dose: 400.0 mg/kg/injection, schedule: Q01DX009 (ip), vehicle: saline",95 % of control
